Assay results from patent US10676438B2, “KCNQ2-5 channel activator” (Ono Pharmaceutical Co., Ltd., priority 2014, dated 2020).
Values after ≈ are worked out from the molar mass of the structure shown.

What was measured:
[1] = biological target: Human KCNQ2/3 channel (Homo sapiens (Human), UniProt O43525+O43526); experiment: Opening action with respect to KCNQ2/3 channel by depolarization stimulation (thallium influx, FLIPR); format: cell-based; conditions: concentration giving 50% of maximum reaction of retigabine (10 μM); human KCNQ2/3 expression CHO-DHFR- cells; 5 mM potassium and 0.5 mM thallium; read-out: KCNQ2/3 ECrtg50
Experimental: Human KCNQ2/3 expression cells (CHO-DHFR-cells) were seeded in each well of 384 well plate (collagen-coated, black, clear bottom) at 0.5×10^4 cells/50 μL per well, and cultured in a MEM ALPHA medium (containing 10 vol % inactivated (56° C., 30 min) Fetal Bovine Serum and 100 IU/mL Penicillin—100 μg/mL Streptomycin—2 mM L-Glutamine) at 37° C. in 5% CO2 for 18 to 24 hours. The medium in the plate was removed. Then, incubation (room temperature, 60 minutes, light-shielded) was carried out in a loading buffer (prepared by the method described in the manual of FluxOR Thallium Detection Kit (Invitrogen, F10016, F10017)). KCNQ2/3 channel opening action (thallium influx into cells) by the depolarization stimulation (5 mM potassium and 0.5 mM thallium) was measured by FLIPR TETRA (Molecular Devices). The compound of the present invention had been treated five minutes before the depolarization stimulation, and the reaction induced by the depolarization stimulation was measured over time for 180 seconds. The channel opening action of the compound of the present invention was evaluated based on the change amount of the fluorescence intensity from the time before the depolarization stimulation to the time after the passage of 180 seconds. Thus, the concentration (ECrtg50) satisfying 50% of the fluorescence intensity change of maximum reaction (at the time of 10 μM-treatment) of retigabine under this experiment condition was calculated.

[2] = Solubility test (DMSO precipitation method, Pharmacopoeia of Japan elution test second solution); format: physicochemical; conditions: Pharmacopoeia of Japan elution test second solution pH=6.8, room temperature, five hours, quantitation range 5 to 100 μM; for solubility at 5 h: aqueous buffer, kinetic from dmso stock
Experimental: A calibration curve solution was prepared by diluting a test substance (10 mM DMSO solution) with acetonitrile and adding acetonitrile including an internal standard substance (candesartan) so as to be 0.1, 0.4, and 2 μM.
Sample solution was prepared as follows: 5 μL of the compound of the present invention (10 mM DMSO solution) was added to 495 μL of the Pharmacopoeia of Japan elution test second solution (pH=6.8), and the resulting mixture was stirred at room temperature for five hours. Then, the solution was placed into a solubility filter plate and subjected to suction filtration. The filtrate (20 μL) was diluted with acetonitrile, followed by adding acetonitrile including an internal standard substance ([…]).
The calibration curve and sample solutions in the amount of 5 μL were infused into LC-MS/MS (Discovery Max manufactured by Thermo Scientific) and subjected to quantitation (quantitation range: 5 to 100 μM).

| SMILES | EC50 [1] | solubility at 5 h [2] | Solubility [2] |
| --- | --- | --- | --- |
| CC(C)(C)c1cc(CNC(=O)Nc2c(Cl)cc(C(C)(O)C(F)(F)F)cc2Cl)no1 (stereo not shown) [Example 13, 1-[2,6-dichloro-4-(1,1,1-trifluoro-2-hydroxy-2-propanyl)phenyl]-3-{[5-(2-methyl-2-propanyl)-1,2-oxazole 3-yl]methyl}urea] | 0.01 µM | 69 µM (≈ 31.3 µg/mL) |  |
| CC(O)(c1cc(Cl)c(NC(=O)NCC2(O)CCC(F)(F)CC2)c(Cl)c1)C(F)(F)F (stereo not shown) [Example 5 (6), 1-[2,6-dichloro-4-(1,1,1-trifluoro-2-hydroxy-2-propanyl)phenyl]-3-[(4,4-difluoro-1-hydroxycyclohexyl)methyl]urea] | 0.4 µM | 94 µM (≈ 43.7 µg/mL) |  |
| CC(O)(c1cc(Cl)c(NC(=O)CCc2ccc(F)cc2)c(Cl)c1)C(F)(F)F (stereo not shown) [Example 50 (2), N-[2,6-dichloro-4-(1,1,1-trifluoro-2-hydroxy-2-propanyl)phenyl]-3-(4-fluorophenyl)propanamide] | 0.03 µM | 41 µM (≈ 17.4 µg/mL) |  |
| COC(C)(c1cc(Cl)c(NC(=O)NCc2ccc(C(F)(F)F)cn2)c(Cl)c1)C(F)(F)F (stereo not shown) [Example 71, 1-[2,6-dichloro-4-(1,1,1-trifluoro-2-methoxy-2-propanyl)phenyl]-3-{[5-(trifluoromethyl)-2-pyridinyl]methyl}urea] | 0.2 µM |  |  |
| CC(C)[C@@H](C)NC(=O)Nc1c(Cl)cc(C(C)(O)C(F)(F)F)cc1Cl (stereo partly drawn) [Example 5 (21), 1-[2,6-dichloro-4-(1,1,1-trifluoro-2-hydroxy-2-propanyl)phenyl]-3-[(2R)-3-methyl-2-butanyl]urea] | 0.07 µM |  |  |
| CC(O)(c1cc(Cl)c(NC(=O)NCc2ncccc2C(F)(F)F)c(Cl)c1)C(F)(F)F (stereo not shown) [Example 5 (9), 1-[2,6-dichloro-4-(1,1,1-trifluoro-2-hydroxy-2-propanyl)phenyl]-3-{[3-(trifluoromethyl)-2-pyridinyl]methyl}urea] | 0.3 µM | 91 µM (≈ 43.3 µg/mL) |  |
| CC(O)(c1cc(Cl)c(NC(=O)NCc2nccn2Cc2ccccc2)c(Cl)c1)C(F)(F)F (stereo not shown) [Example 5 (12), 1-[(1-benzyl-1H-imidazole-2-yl)methyl]-3-[2,6-dichloro-4-(1,1,1-trifluoro-2-hydroxy-2-propanyl)phenyl]urea] | 2.9 µM |  |  |
| CC(NC(=O)Nc1c(Cl)cc(C(C)(O)C(F)(F)F)cc1Cl)C(C)(C)C (stereo not shown) [Example 5 (4), 1-[2,6-dichloro-4-(1,1,1-trifluoro-2-hydroxy-2-propanyl)phenyl]-3-(3,3-dimethyl-2-butanyl)urea] | 0.003 µM | 79 µM (≈ 31.7 µg/mL) |  |
| CC(O)(c1cc(Cl)c(NC(=O)CCc2cccc(C(F)(F)F)c2)c(Cl)c1)C(F)(F)F (stereo not shown) [Example 50 (6), N-[2,6-dichloro-4-(1,1,1-trifluoro-2-hydroxy-2-propanyl)phenyl]-3-[3-(trifluoromethyl)phenyl]propanamide] | 0.06 µM |  |  |
| Cc1cc(C(O)C(F)(F)F)cc(Cl)c1NC(=O)NCc1ccc(C(F)(F)F)cn1 (stereo not shown) [Example 62, 1-[2-chloro-6-methyl-4-(2,2,2-trifluoro-1-hydroxyethyl)phenyl]-3-{[5-(trifluoromethyl)-2-pyridinyl]methyl}urea] | 0.06 µM | 71 µM (≈ 31.4 µg/mL) |  |
| CC(O)(c1cc(Cl)c(NC(=O)NCc2ccc(C(F)(F)F)o2)c(Cl)c1)C(F)(F)F (stereo not shown) [Example 5 (17), 1-[2,6-dichloro-4-(1,1,1-trifluoro-2-hydroxy-2-propanyl)phenyl]-3-{[5-(trifluoromethyl)-2-furyl]methyl}urea] | 0.003 µM |  |  |
| CC(O)(c1cc(Cl)c(NC(=O)NCc2ccc(Br)cn2)c(Cl)c1)C(F)(F)F (stereo not shown) [Example 5 (11), 1-[(5-bromo-2-pyridinyl)methyl]-3-[2,6-dichloro-4-(1,1,1-trifluoro-2-hydroxy-2-propanyl)phenyl]urea] | 0.07 µM |  |  |
| CC(O)(c1cc(Cl)c(NC(=O)NCc2nc(C3CC3)no2)c(Cl)c1)C(F)(F)F (stereo not shown) [Example 5 (22), 1-[(3-cyclopropyl-1,2,4-oxadiazole-5-yl)methyl]-3-[2,6-dichloro-4-(1,1,1-trifluoro-2-hydroxy-2-propanyl)phenyl]urea] | 0.7 µM | 85 µM (≈ 37.3 µg/mL) |  |
| O=C(Cc1ccc(F)cc1)Nc1c(Cl)cc(Cl)cc1Br [Comparative Example 2, N-(2-bromo-4,6-dichlorophenyl)-2-(4-fluorophenyl)acetamide, reference compound] |  | < 5 µM | <5 µM |
| CC(O)(c1cc(Cl)c(NC(=O)NCc2ncc(C(F)(F)F)cn2)c(Cl)c1F)C(F)(F)F (stereo not shown) [Example 43 (1), 1-[2,6-dichloro-3-fluoro-4-(1,1,1-trifluoro-2-hydroxy-2-propanyl)phenyl]-3-{[5-(trifluoromethyl)-2-pyrimidinyl]methyl}urea] | 0.4 µM | 89 µM (≈ 44.1 µg/mL) |  |
| CC(C)(C)CC(=O)Nc1c(Cl)cc(C(C)(O)C(F)(F)F)cc1Cl (stereo not shown) [Example 50 (4), N-[2,6-dichloro-4-(1,1,1-trifluoro-2-hydroxy-2-propanyl)phenyl]-3,3-dimethylbutane amide] | 0.05 µM |  |  |
| NC(c1cc(Cl)c(NC(=O)NCc2cnc(C(F)(F)F)s2)c(Cl)c1)C(F)(F)F (stereo not shown) [Example 79 (4), 1-[4-(1-amino-2,2,2-trifluoroethyl)-2,6-dichlorophenyl]-3-{[2-(trifluoromethyl)-1,3-thiazole-5-yl]methyl}urea] | 0.3 µM |  |  |
| CC1(C)CC(CNC(=O)Nc2c(Cl)cc(C(C)(O)C(F)(F)F)cc2Cl)CCO1 (stereo not shown) [Example 5 (5), 1-[2,6-dichloro-4-(1,1,1-trifluoro-2-hydroxy-2-propanyl)phenyl]-3-[(2,2-dimethyltetrahydro-2H-pyran-4-yl)methyl]urea] | 0.3 µM | 93 µM (≈ 41.2 µg/mL) |  |
| CC(O)(c1cc(Cl)c(NC(=O)NCc2cc(-c3ccccc3)on2)c(Cl)c1)C(F)(F)F (stereo not shown) [Example 5 (16), 1-[2,6-dichloro-4-(1,1,1-trifluoro-2-hydroxy-2-propanyl)phenyl]-3-[(5-phenyl-1,2-oxazole-3-yl)methyl]urea] | 0.01 µM |  |  |
| CC(O)(CC(F)(F)F)c1cc(Cl)c(NC(=O)NCc2ccc(C(F)(F)F)cn2)c(Cl)c1 (stereo not shown) [Example 67, 1-[2,6-dichloro-4-(4,4,4-trifluoro-2-hydroxy-2-butanyl)phenyl]-3-{[5-(trifluoromethyl)-2-pyridinyl]methyl}urea] | 3.5 µM |  |  |
| CC(O)(c1cc(F)c(NC(=O)NCc2ccc(C(F)(F)F)cn2)c(Cl)c1)C(F)(F)F (stereo not shown) [Example 49, 1-[2-chloro-6-fluoro-4-(1,1,1-trifluoro-2-hydroxy-2-propanyl)phenyl]-3-{[5-(trifluoromethyl)-2-pyridinyl]methyl}urea] | 0.6 µM |  |  |
| CC(O)(c1ccc(NC(=O)NCc2ccc(C(F)(F)F)cn2)cc1)C(F)(F)F (stereo not shown) [Comparative Example 1, 1-[4-(1,1,1-trifluoro-2-hydroxy-2-propanyl)phenyl]-3-{[5-(trifluoromethyl)-2-pyridinyl]methyl}urea, reference compound] | > 10 µM |  |  |
| Cc1cccnc1CNC(=O)Nc1c(Cl)cc(C(C)(O)C(F)(F)F)cc1Cl (stereo not shown) [Example 5 (7), 1-[2,6-dichloro-4-(1,1,1-trifluoro-2-hydroxy-2-propanyl)phenyl]-3-[(3-methyl-2-pyridinyl)methyl]urea] | 0.5 µM |  |  |
| CC(O)(c1cc(Cl)c(NC(=O)CCc2ccccc2C(F)(F)F)c(Cl)c1)C(F)(F)F (stereo not shown) [Example 50 (7), N-[2,6-dichloro-4-(1,1,1-trifluoro-2-hydroxy-2-propanyl)phenyl]-3-[2-(trifluoromethyl)phenyl]propanamide] | 0.04 µM |  |  |
| CC(O)(c1cc(Cl)c(NC(=O)NCc2cccc(N3CCCCC3)n2)c(Cl)c1)C(F)(F)F (stereo not shown) [Example 5 (3), 1-[2,6-dichloro-4-(1,1,1-trifluoro-2-hydroxy-2-propanyl)phenyl]-3-{[6-(1-piperidinyl)-2-pyridinyl]methyl}urea] | 0.5 µM |  |  |
| CC(O)(c1cc(Cl)c(NC(=O)NCc2ccc(Cl)s2)c(Cl)c1)C(F)(F)F (stereo not shown) [Example 5 (8), 1-[(5-chloro-2-thienyl)methyl]-3-[2,6-dichloro-4-(1,1,1-trifluoro-2-hydroxy-2-propanyl)phenyl]urea] | 0.001 µM |  |  |
| CC(O)(c1cc(Cl)c(NC(=O)NCC2CCCCC2)c(Cl)c1)C(F)(F)F (stereo not shown) [Example 5 (10), 1-(cyclohexylmethyl)-3-[2,6-dichloro-4-(1,1,1-trifluoro-2-hydroxy-2-propanyl)phenyl]urea] | 0.0003 µM |  |  |
